{"source": "patent US10351522B2", "about": "“Sulfonamide derivative and pharmaceutically acceptable acid addition salt thereof” (UNIVERSITY OF TSUKUBA, priority 2015, dated 2019)", "key": {"[1]": {"molecular_target": "T1, human OX2R (Homo sapiens, UniProt O43614)", "T1 construct": "expressed in transfected cells; host or cells: CHO (Chinese hamster ovary) cells, line CHOOX2R, co-expressing NFAT-luciferase", "T1 sequence (O43614 1-444)": "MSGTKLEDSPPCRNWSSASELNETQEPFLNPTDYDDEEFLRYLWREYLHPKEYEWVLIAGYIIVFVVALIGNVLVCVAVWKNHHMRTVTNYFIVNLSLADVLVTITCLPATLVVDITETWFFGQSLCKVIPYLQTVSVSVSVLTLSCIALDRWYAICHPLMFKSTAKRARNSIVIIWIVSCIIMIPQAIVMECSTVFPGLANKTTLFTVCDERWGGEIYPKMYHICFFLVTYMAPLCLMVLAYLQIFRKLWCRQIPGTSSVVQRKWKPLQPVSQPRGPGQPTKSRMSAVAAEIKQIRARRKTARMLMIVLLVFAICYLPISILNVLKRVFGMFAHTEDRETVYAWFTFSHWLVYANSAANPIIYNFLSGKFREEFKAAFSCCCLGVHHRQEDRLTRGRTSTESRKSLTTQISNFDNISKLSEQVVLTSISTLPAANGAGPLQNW", "experiment": "Agonist activity against OX2R: intracellular calcium (Fura-2AM, FDSS7000) in CHOOX2R cells", "format": "cell-based", "conditions": "relative to orexin-A as full agonist (100%)", "procedure,_shortened": "(§1)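 CHO cells stably expressing human OX1R or OX2R (plus NFAT-luciferase) were loaded with 5 μM Fura-2AM for 60 min, then given compound at 10^−7 to 10^−5 M final (1% DMSO). Calcium change read as 340/380 nm excitation fluorescence ratio; response expressed as % of orexin-A maximal activity at 10, 1.0 and 0.1 μM.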"}, "[2]": {"molecular_target": "T2, human OX1R (Homo sapiens, UniProt O43613)", "T2 construct": "expressed in transfected cells; host or cells: CHO (Chinese hamster ovary) cells, line CHOOX1R, co-expressing NFAT-luciferase", "T2 sequence (O43613 1-425)": "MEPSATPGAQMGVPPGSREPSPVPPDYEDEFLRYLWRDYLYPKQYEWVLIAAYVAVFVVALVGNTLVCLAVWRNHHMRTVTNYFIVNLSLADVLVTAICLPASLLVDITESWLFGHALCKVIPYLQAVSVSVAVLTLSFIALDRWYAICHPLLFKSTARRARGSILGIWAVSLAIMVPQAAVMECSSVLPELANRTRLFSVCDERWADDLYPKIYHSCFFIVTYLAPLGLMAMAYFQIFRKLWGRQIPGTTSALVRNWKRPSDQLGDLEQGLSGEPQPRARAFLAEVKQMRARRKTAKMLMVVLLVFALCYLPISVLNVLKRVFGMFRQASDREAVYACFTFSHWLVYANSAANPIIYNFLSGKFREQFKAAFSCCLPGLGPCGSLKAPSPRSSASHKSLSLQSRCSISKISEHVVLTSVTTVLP", "experiment": "Agonist activity against OX1R: intracellular calcium (Fura-2AM, FDSS7000) in CHOOX1R cells", "format": "cell-based", "conditions": "for Emax at 0.1 µM / Emax at 1 µM / Emax at 10 µM: read-out: Response (%) OX1R", "procedure,_shortened": "as §1"}, "[3]": {"conditions": "0.1 μM test compound, relative to orexin-A as full agonist (100%)"}, "[4]": {"conditions": "1.0 μM test compound, relative to orexin-A as full agonist (100%)"}, "[5]": {"conditions": "10 μM test compound, relative to orexin-A as full agonist (100%)"}, "[6]": {"conditions": "test compound 0.1 μM, relative to orexin-A as full agonist (100%)"}, "[7]": {"conditions": "test compound 1.0 μM, relative to orexin-A as full agonist (100%)"}, "[8]": {"conditions": "test compound 10 μM, relative to orexin-A as full agonist (100%)"}}, "note": "Read-outs that look alike come from different tables or passages of the source."}
{"smiles": "COc1ccc(-c2cccc(C(=O)N(C)C)c2)cc1S(=O)(=O)Nc1cccc(NC(=O)Nc2ccc(C)cc2)c1", "note": "[Example 56]", "values": [{"measurement": "Response (%) OX2R", "setting": "[1]; 0.1 μM test compound", "value": 95, "unit": "%"}, {"measurement": "Response (%) OX2R", "setting": "[1]; 1.0 μM test compound", "value": 96, "unit": "%"}, {"measurement": "Response (%) OX2R", "setting": "[1]; 10 μM test compound", "value": 82, "unit": "%"}, {"measurement": "Response (%) OX1R", "setting": "[2]; [3]", "value": "<5", "unit": "%"}, {"measurement": "Response (%) OX1R", "setting": "[2]; [4]", "value": "<5", "unit": "%"}, {"measurement": "Response (%) OX1R", "setting": "[2]; [5]", "value": 19, "unit": "%"}]}
{"smiles": "COc1ccc(-c2cccc(C(=O)N(C)C)c2)cc1S(=O)(=O)Nc1cccc(NCc2cccc(C)c2)c1", "note": "[Example 25]", "values": [{"measurement": "Response (%) OX2R", "setting": "[1]; 0.1 μM test compound", "value": 21, "unit": "%"}, {"measurement": "Response (%) OX2R", "setting": "[1]; 1.0 μM test compound", "value": 88, "unit": "%"}, {"measurement": "Response (%) OX2R", "setting": "[1]; 10 μM test compound", "value": 97, "unit": "%"}, {"measurement": "Response (%) OX1R", "setting": "[2]; [3]", "value": "<5", "unit": "%"}, {"measurement": "Response (%) OX1R", "setting": "[2]; [4]", "value": "<5", "unit": "%"}, {"measurement": "Response (%) OX1R", "setting": "[2]; [5]", "value": 32, "unit": "%"}]}
{"smiles": "COc1ccc(-c2cccc(C(=O)N(C)C)c2)cc1S(=O)(=O)Nc1cccc(N=Nc2ccc(O)cc2NC(=O)OC(C)(C)C)c1", "note": "[Example 98]", "values": [{"measurement": "Response (%) OX2R", "setting": "[1]; test compound 0.1 μM", "value": 13, "unit": "%"}, {"measurement": "Response (%) OX2R", "setting": "[1]; test compound 1.0 μM", "value": 11, "unit": "%"}, {"measurement": "Response (%) OX2R", "setting": "[1]; test compound 10 μM", "value": 67, "unit": "%"}, {"measurement": "Response (%) OX1R", "setting": "[2]; [6]", "value": 8, "unit": "%"}, {"measurement": "Response (%) OX1R", "setting": "[2]; [7]", "value": 8, "unit": "%"}, {"measurement": "Response (%) OX1R", "setting": "[2]; [8]", "value": 9, "unit": "%"}]}
{"smiles": "COc1ccc(-c2cccc(C(=O)N(C)C)c2)cc1S(=O)(=O)Nc1cccc(N(C)C(=O)Nc2cccc(N(C)C)c2)c1", "note": "[Example 125, 3′-(N-(3-(3-(3-(dimethylamino)phenyl)-1-methylureido)phenyl)sulfamoyl)-4′-methoxy-N,N-dimethyl-[1,1′-biphenyl]-3-carboxamide]", "values": [{"measurement": "Response (%) OX2R", "setting": "[1]; test compound 0.1 μM", "value": 42, "unit": "%"}, {"measurement": "Response (%) OX2R", "setting": "[1]; test compound 1.0 μM", "value": 78, "unit": "%"}, {"measurement": "Response (%) OX2R", "setting": "[1]; test compound 10 μM", "value": 79, "unit": "%"}, {"measurement": "Emax at 0.1 µM", "setting": "[2]", "value": "< 5", "unit": "%"}, {"measurement": "Emax at 1 µM", "setting": "[2]", "value": "< 5", "unit": "%"}, {"measurement": "Emax at 10 µM", "setting": "[2]", "value": "< 5", "unit": "%"}]}
{"smiles": "COc1ccc(-c2cccc(C(=O)N(C)C)c2)cc1S(=O)(=O)Nc1cccc(N2CCCN(c3ccccc3)C2=O)c1", "note": "[Example 132]", "values": [{"measurement": "Response (%) OX2R", "setting": "[1]; test compound 0.1 μM", "value": 42, "unit": "%"}, {"measurement": "Response (%) OX2R", "setting": "[1]; test compound 1.0 μM", "value": 100, "unit": "%"}, {"measurement": "Response (%) OX2R", "setting": "[1]; test compound 10 μM", "value": 101, "unit": "%"}, {"measurement": "Response (%) OX1R", "setting": "[2]; [6]", "value": "<5", "unit": "%"}, {"measurement": "Response (%) OX1R", "setting": "[2]; [7]", "value": "<5", "unit": "%"}, {"measurement": "Response (%) OX1R", "setting": "[2]; [8]", "value": 46, "unit": "%"}]}
{"smiles": "COc1ccc(-c2cccc(C(=O)N(C)C)c2)cc1S(=O)(=O)Nc1cccc(NC(=O)c2ccccc2C)c1", "note": "[Example 16]", "values": [{"measurement": "Response (%) OX2R", "setting": "[1]; 0.1 μM test compound", "value": "<5", "unit": "%"}, {"measurement": "Response (%) OX2R", "setting": "[1]; 1.0 μM test compound", "value": 19, "unit": "%"}, {"measurement": "Response (%) OX2R", "setting": "[1]; 10 μM test compound", "value": 82, "unit": "%"}, {"measurement": "Response (%) OX1R", "setting": "[2]; [3]", "value": "<5", "unit": "%"}, {"measurement": "Response (%) OX1R", "setting": "[2]; [4]", "value": "<5", "unit": "%"}, {"measurement": "Response (%) OX1R", "setting": "[2]; [5]", "value": 10, "unit": "%"}]}
{"smiles": "C=CC(=O)NCCN(C(=O)C=C)c1cccc(NS(=O)(=O)c2cc(-c3cccc(C(=O)N(C)C)c3)ccc2OC)c1", "note": "[Example 94, 3′-(N-(3-(N-(2-acrylamidoethyl)acrylamido)phenyl)sulfamoyl)-4′-methoxy-N,N-dimethyl-[1,1′-biphenyl]-3-carboxamide]", "values": [{"measurement": "Response (%) OX2R", "setting": "[1]; test compound 0.1 μM", "value": "<5", "unit": "%"}, {"measurement": "Response (%) OX2R", "setting": "[1]; test compound 1.0 μM", "value": "<5", "unit": "%"}, {"measurement": "Response (%) OX2R", "setting": "[1]; test compound 10 μM", "value": 46, "unit": "%"}, {"measurement": "Emax at 0.1 µM", "setting": "[2]; [6]", "value": "< 5", "unit": "%"}, {"measurement": "Emax at 1 µM", "setting": "[2]; [7]", "value": "< 5", "unit": "%"}, {"measurement": "Emax at 10 µM", "setting": "[2]; [8]", "value": "< 5", "unit": "%"}]}
{"smiles": "COc1ccc(-c2cccc(C(=O)N(C)C)c2)cc1S(=O)(=O)Nc1cccc(NC(=O)Nc2ccncc2)c1", "note": "[Example 70]", "values": [{"measurement": "Response (%) OX2R", "setting": "[1]; 0.1 μM test compound", "value": 9, "unit": "%"}, {"measurement": "Response (%) OX2R", "setting": "[1]; 1.0 μM test compound", "value": 9, "unit": "%"}, {"measurement": "Response (%) OX2R", "setting": "[1]; 10 μM test compound", "value": 46, "unit": "%"}, {"measurement": "Response (%) OX1R", "setting": "[2]; [3]", "value": 6, "unit": "%"}, {"measurement": "Response (%) OX1R", "setting": "[2]; [4]", "value": 6, "unit": "%"}, {"measurement": "Response (%) OX1R", "setting": "[2]; [5]", "value": 6, "unit": "%"}]}
{"smiles": "COc1ccc(-c2cccc(C(=O)N(C)C)c2)cc1S(=O)(=O)Nc1cccc(N2CCN(c3ccccc3)C2=O)c1", "note": "[Example 128, 4′-methoxy-N,N-dimethyl-3′-(N-(3-(2-oxo-3-phenylimidazolidin-1-yl)phenyl)sulfamoyl)-[1,1′-biphenyl]-3-carboxamide]", "values": [{"measurement": "Response (%) OX2R", "setting": "[1]; test compound 0.1 μM", "value": 10, "unit": "%"}, {"measurement": "Response (%) OX2R", "setting": "[1]; test compound 1.0 μM", "value": 77, "unit": "%"}, {"measurement": "Response (%) OX2R", "setting": "[1]; test compound 10 μM", "value": 105, "unit": "%"}, {"measurement": "Emax at 0.1 µM", "setting": "[2]", "value": "< 5", "unit": "%"}, {"measurement": "Emax at 1 µM", "setting": "[2]", "value": "< 5", "unit": "%"}, {"measurement": "Emax at 10 µM", "setting": "[2]", "value": 6, "unit": "%"}]}
{"smiles": "COc1ccc(-c2cccc(C(=O)N(C)C)c2)cc1S(=O)(=O)Nc1cccc(N(CCNC(=O)OC(C)(C)C)Cc2ccccc2)c1", "note": "[Example 91, tert-butyl (2-((benzyl)(3-(3′-(dimethylcarbamoyl)-4-methoxy-[1,1′-biphenyl]-3-ylsulfonamido)phenyl)amino)ethyl)carbamate]", "values": [{"measurement": "Response (%) OX2R", "setting": "[1]; test compound 0.1 μM", "value": "<5", "unit": "%"}, {"measurement": "Response (%) OX2R", "setting": "[1]; test compound 1.0 μM", "value": "<5", "unit": "%"}, {"measurement": "Response (%) OX2R", "setting": "[1]; test compound 10 μM", "value": 35, "unit": "%"}, {"measurement": "Emax at 0.1 µM", "setting": "[2]; [6]", "value": "< 5", "unit": "%"}, {"measurement": "Emax at 1 µM", "setting": "[2]; [7]", "value": "< 5", "unit": "%"}, {"measurement": "Emax at 10 µM", "setting": "[2]; [8]", "value": "< 5", "unit": "%"}]}
